Where two headings read alike, the source gives them in different places.
How the values were obtained:
[1] = target: T1, baculovirus-expressed ALK (Homo sapiens, UniProt Q9UM73); experiment: ALK Kinase Assay (ELISA-type, time-resolved fluorescence); format: biochemical
T1 construct: host or cells: baculovirus expression system
Method in brief: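 Substrate coating: phospholipase C-γ, 10 μg/mL in TBS. Kinase step: 30 ng/ml ALK, 15 min, 37° C. Detection and analysis: Eu-N1 PT66 antibody, with IC50 fitted as a sigmoidal variable-slope dose-response curve.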

[2] = target: T2, c-Met (cytoplasmic domain) (Homo sapiens, UniProt P08581); experiment: c-Met Kinase Assay (same methods as for ALK, with modifications); format: biochemical
T2 construct: 10 ng/mL c-Met (cytoplasmic domain, Invitrogen Corporation #PV3143); purchased Invitrogen Corporation PV3143
T2 sequence (P08581 956-1390 limits assumed): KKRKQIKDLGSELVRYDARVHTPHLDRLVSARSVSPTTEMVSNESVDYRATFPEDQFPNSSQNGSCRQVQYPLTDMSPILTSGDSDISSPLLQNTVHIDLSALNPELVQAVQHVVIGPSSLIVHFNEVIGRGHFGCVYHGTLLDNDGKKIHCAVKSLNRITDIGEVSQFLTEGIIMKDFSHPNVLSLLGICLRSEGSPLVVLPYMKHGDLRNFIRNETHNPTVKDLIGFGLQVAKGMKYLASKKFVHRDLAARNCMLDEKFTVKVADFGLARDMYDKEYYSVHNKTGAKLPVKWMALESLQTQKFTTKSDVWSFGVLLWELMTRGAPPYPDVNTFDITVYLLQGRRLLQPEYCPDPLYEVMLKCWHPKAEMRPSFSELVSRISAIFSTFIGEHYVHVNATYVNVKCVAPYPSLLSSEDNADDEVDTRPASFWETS
Method in brief: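 Wells were coated with 10 μg/mL phospholipase C-γ substrate in TBS, and reactions were started with 10 ng/mL c-Met cytoplasmic domain and run at 37° C for 15 minutes. Phosphorylated product was detected with Eu-N1-labeled PT66 antibody. IC50 values came from sigmoidal variable-slope fits of percent inhibition versus log compound concentration.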

[3] = ALK kinase inhibition, 1 μM ATP, read-out: ALK Activity
[4] = c-Met kinase inhibition, 1 μM ATP, read-out: cMet Activity
[5] = 1 μM ATP (Km level), read-out: ALK Activity (ALK Kinase Inhibition, IC50)
[6] = 1 μM ATP (Km level), read-out: cMet Activity (c-Met Kinase Inhibition, IC50)
[7] = ALK kinase inhibition, 1 μM ATP (Km level), read-out: ALK Activity
[8] = c-Met kinase inhibition, 1 μM ATP (Km level), read-out: cMet Activity
[9] = 1 μM ATP (Km level), 30 ng/ml ALK, 37° C., 15 minutes, read-out: ALK Activity (ALK kinase inhibition, IC50 class)
[10] = 1 μM ATP (Km level), 10 ng/mL c-Met, read-out: cMet Activity (c-Met kinase inhibition, IC50 class)

T1 sequence (Q9UM73 19-1620): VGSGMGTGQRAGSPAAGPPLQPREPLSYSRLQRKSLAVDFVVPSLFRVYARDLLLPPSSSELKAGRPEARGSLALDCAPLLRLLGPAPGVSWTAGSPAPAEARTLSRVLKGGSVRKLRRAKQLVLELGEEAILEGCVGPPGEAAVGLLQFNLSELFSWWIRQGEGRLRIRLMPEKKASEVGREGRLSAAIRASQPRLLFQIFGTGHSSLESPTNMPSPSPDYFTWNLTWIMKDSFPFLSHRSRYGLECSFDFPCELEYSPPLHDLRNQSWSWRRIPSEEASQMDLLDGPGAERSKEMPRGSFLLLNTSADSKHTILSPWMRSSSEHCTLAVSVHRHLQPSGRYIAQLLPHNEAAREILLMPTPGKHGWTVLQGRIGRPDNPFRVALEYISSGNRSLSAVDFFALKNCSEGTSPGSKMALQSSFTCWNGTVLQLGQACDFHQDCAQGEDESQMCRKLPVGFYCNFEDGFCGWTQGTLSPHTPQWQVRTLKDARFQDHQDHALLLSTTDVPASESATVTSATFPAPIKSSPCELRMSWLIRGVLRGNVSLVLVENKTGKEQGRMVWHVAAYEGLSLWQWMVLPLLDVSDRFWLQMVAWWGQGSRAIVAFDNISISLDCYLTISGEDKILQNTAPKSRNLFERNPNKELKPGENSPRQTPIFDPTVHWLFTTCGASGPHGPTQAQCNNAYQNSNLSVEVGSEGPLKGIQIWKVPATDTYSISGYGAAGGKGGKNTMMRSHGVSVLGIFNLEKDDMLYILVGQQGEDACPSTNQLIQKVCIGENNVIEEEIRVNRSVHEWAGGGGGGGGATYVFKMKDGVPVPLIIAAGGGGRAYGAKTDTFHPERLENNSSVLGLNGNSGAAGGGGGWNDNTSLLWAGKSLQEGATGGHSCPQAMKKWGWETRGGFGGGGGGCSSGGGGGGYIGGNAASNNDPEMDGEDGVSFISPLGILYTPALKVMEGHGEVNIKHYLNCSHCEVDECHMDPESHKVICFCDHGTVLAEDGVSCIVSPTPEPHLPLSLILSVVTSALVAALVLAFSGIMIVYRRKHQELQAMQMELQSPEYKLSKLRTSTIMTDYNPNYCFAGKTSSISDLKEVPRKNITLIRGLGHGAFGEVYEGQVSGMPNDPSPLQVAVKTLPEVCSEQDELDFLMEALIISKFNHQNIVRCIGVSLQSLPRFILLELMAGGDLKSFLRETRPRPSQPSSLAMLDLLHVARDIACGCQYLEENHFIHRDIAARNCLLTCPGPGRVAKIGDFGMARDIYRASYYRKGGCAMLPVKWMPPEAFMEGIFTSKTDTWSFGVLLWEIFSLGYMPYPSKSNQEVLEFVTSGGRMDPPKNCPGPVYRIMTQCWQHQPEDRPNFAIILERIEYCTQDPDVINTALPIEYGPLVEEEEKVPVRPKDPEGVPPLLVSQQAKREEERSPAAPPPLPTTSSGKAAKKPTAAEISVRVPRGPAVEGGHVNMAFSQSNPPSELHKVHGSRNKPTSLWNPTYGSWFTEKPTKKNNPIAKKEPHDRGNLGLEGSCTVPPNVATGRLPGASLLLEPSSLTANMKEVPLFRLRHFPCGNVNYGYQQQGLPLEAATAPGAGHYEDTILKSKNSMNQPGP

Row | SMILES | IC50 [1, 3] [nM] | IC50 [2, 4] [nM] | IC50 [1, 7] [nM] | IC50 [2, 8] [nM] | IC50 [1, 9] [nM] | IC50 [2, 10] [nM] | further results
1 | CCNC(=O)c1cccc(F)c1Nc1nc(Nc2ccc3c(c2)NC(=O)CCC3(C)C)ncc1Cl [Example 1575, 2-[5-Chloro-2-(5,5-dimethyl-2-oxo-2,3,4,5-tetrahydro-1H-benzo[b]azepin-8-ylamino)-pyrimidin-4-ylamino]-N-ethyl-3-fluoro-benzamide] | < 100 | < 100 |  |  |  |  | 
2 | CCN1CCN(CC)c2cc(Nc3ncc(Cl)c(Nc4ccc(OC)cc4-n4cccn4)n3)ccc2C1 [Example 732, 5-Chloro-N(2)-(1,4-diethyl-2,3,4,5-tetrahydro-1H-benzo[e][1,4]diazepin-8-yl)-N(4)-(4-methoxy-2-pyrazol-1-yl-phenyl)-pyrimidine-2,4-diamine] |  |  |  |  |  |  | IC50 [1, 5]: < 100 nM; IC50 [2, 6]: 1000 to 10000 nM
3 | CNS(=O)(=O)c1ccccc1Nc1nc(Nc2ccc3c(c2)CCCC(=O)N3CC(=O)O)ncc1Cl [Example 9, {7-[5-Chloro-4-(2-methylsulfamoyl-phenylamino)-pyrimidin-2-ylamino]-2-oxo-2,3,4,5-tetrahydro-benzo[b]azepin-1-yl}-acetic acid] |  |  | < 100 | < 100 |  |  | 
4 | CNC(=O)c1cc(OC)ccc1Nc1nc(Nc2cc3c(cc2OC)CCN(CC(=O)N(C)C)CC3)ncc1Cl [Example 617, 2-[5-Chloro-2-(3-dimethylcarbamoylmethyl-8-methoxy-2,3,4,5-tetrahydro-1H-benzo[d]azepin-7-ylamino)-pyrimidin-4-ylamino]-5-methoxy-N-methyl-benzamide] |  |  |  |  |  |  | IC50 [1, 5]: < 100 nM; IC50 [2, 6]: 1000 to 10000 nM
5 | CNC(=O)c1cc(-c2cnn(C)c2)cc(F)c1Nc1nc(Nc2ccc3c(c2)N(C(C)=O)CCCO3)ncc1Cl [Example 1424, 2-[2-(9-Acetyl-6,7,8,9-tetrahydro-5-oxa-9-aza-benzocyclohepten-2-ylamino)-5-chloro-pyrimidin-4-ylamino]-3-fluoro-N-methyl-5-(1-methyl-1H-pyrazol-4-yl)-benzamide] |  |  |  |  | 100 to 1000 | < 100 | 
6 | CN1C(=O)CCC(C)(C)c2cc(Nc3ncc(Cl)c(N[C@H]4[C@@H](C(N)=O)[C@@H]5C=C[C@H]4C5)n3)ccc21 (relative stereo) [Example 386, (2-exo, 3-exo)-3-[5-Chloro-2-(1,5,5-trimethyl-2-oxo-2,3,4,5-tetrahydro-1H-benzo[b]azepin-7-ylamino)-pyrimidin-4-ylamino]-bicyclo[2.2.1]hept-5-ene-2-carboxylic acid amide] |  |  | < 100 | 100 to 1000 |  |  | 
7 | CN1CCN(CCO)Cc2ccc(Nc3ncc(Cl)c(N[C@@H]4CCCC[C@H]4NS(C)(=O)=O)n3)cc21 [Example 478, N-((1R,2R)-2-{5-Chloro-2-[4-(2-hydroxy-ethyl)-1-methyl-2,3,4,5-tetrahydro-1H-benzo[e][1,4]diazepin-8-ylamino]-pyrimidin-4-ylamino}-cyclohexyl)-methanesulfonamide] |  |  | < 100 | 1000 to 10000 |  |  | 
8 | CN1Cc2cc(Nc3ncc(Cl)c(Nc4ccccc4-c4nccn4C)n3)ccc2CCC1=O [Example 1802, 8-{5-Chloro-4-[2-(1-methyl-1H-imidazol-2-yl)-phenylamino]-pyrimidin-2-ylamino}-2-methyl-1,2,4,5-tetrahydro-benzo[c]azepin-3-one] | 1000 to 10000 | 100 to 1000 |  |  |  |  | 
9 | CCN1C(=O)CCCc2c1ccc(Nc1ncc(Cl)c(NC3C4C=CC(C4)C3C(N)=O)n1)c2OC (stereo not drawn) [Example 121, (2-exo,3-exo)-3-[5-Chloro-2-(1-ethyl-6-methoxy-2-oxo-2,3,4,5-tetrahydro-1H-benzo[b]azepin-7-ylamino)-pyrimidin-4-ylamino]-bicyclo[2.2.1]hept-5-ene-2-carboxylic acid amide] |  |  | < 100 | > 10000 |  |  | 
10 | CNC(=O)c1cccc(F)c1Nc1nc(Nc2ccc3c(c2)N(C(C)C)CCCC3(C)C)ncc1Cl [Example 1626, 2-[5-Chloro-2-(1-isopropyl-5,5-dimethyl-2,3,4,5-tetrahydro-1H-benzo[b]azepin-8-ylamino)-pyrimidin-4-ylamino]-3-fluoro-N-methyl-benzamide] | 100 to 1000 | 100 to 1000 |  |  |  |  | 
11 | CCN1C(=O)CCC(C)(C)c2ccc(Nc3ncc(Cl)c(N[C@H]4[C@@H](C(N)=O)[C@@H]5C=C[C@H]4C5)n3)cc21 [Example 1586, (1S,2S,3R,4R)-3-[5-Chloro-2-(1-ethyl-5,5-dimethyl-2-oxo-2,3,4,5-tetrahydro-1H-benzo[b]azepin-8-ylamino)-pyrimidin-4-ylamino]-bicyclo[2.2.1]hept-5-ene-2-carboxylic acid amide] | < 100 | < 100 |  |  |  |  | 
12 | CS(=O)(=O)N[C@@H]1CCCC[C@H]1Nc1nc(Nc2ccc3c(c2)CCC(F)(F)CC3)ncc1Cl [Example 181, N-{(1R,2R)-2-[5-Chloro-2-(7,7-difluoro-6,7,8,9-tetrahydro-5H-benzocyclohepten-2-ylamino)-pyrimidin-4-ylamino]-cyclohexyl}-methanesulfonamide] |  |  | < 100 | 1000 to 10000 |  |  | 
13 | CCN1C(=O)OCCc2ccc(Nc3ncc(Cl)c(Nc4c(F)cccc4C(=O)NC)n3)cc21 [Example 1882, 2-[5-Chloro-2-(5-ethyl-6-oxo-5,6,8,9-tetrahydro-7-oxa-5-aza-benzocyclohepten-3-ylamino)-pyrimidin-4-ylamino]-3-fluoro-N-methyl-benzamide] |  |  | < 100 | < 100 |  |  | 
14 | C#CCNC(=O)c1cccc(F)c1Nc1nc(Nc2ccc3c(c2)N(C(C)C)CCCO3)ncc1Cl [Example 1733, 2-[5-Chloro-2-(9-isopropyl-6,7,8,9-tetrahydro-5-oxa-9-aza-benzocyclohepten-2-ylamino)-pyrimidin-4-ylamino]-3-fluoro-N-prop-2-ynyl-benzamide] | < 100 | 100 to 1000 |  |  |  |  | 

More lines, main results first:

Row | IC50 [1, 3] [nM] | IC50 [2, 4] [nM] | IC50 [1, 7] [nM] | IC50 [2, 8] [nM] | IC50 [1, 9] [nM] | IC50 [2, 10] [nM] | SMILES | further results
15 | < 100 | 1000 to 10000 |  |  |  |  | COc1cc2c(cc1Nc1ncc(Cl)c(Nc3ccccc3S(=O)(=O)N3CC[C@H](O)C3)n1)CCN(C[C@@H](C)O)CC2 [Example 1556, (S)-1-(2-{5-Chloro-2-[3-((R)-2-hydroxy-propyl)-8-methoxy-2,3,4,5-tetrahydro-1H-3-benzazepin-7-ylamino]-pyrimidin-4-ylamino}-benzenesulfonyl)-pyrrolidin-3-ol] | 
16 |  |  |  |  | 1000 to 10000 | 100 to 1000 | COCCN1CCc2ccc(Nc3ncc(Cl)c(Nc4c(OC)cccc4C(=O)NCC#N)n3)cc2CC1 [Example 1063, 2-{5-Chloro-2-[3-(2-methoxy-ethyl)-2,3,4,5-tetrahydro-1H-benzo[d]azepin-7-ylamino]-pyrimidin-4-ylamino}-N-cyanomethyl-3-methoxy-benzamide] | 
17 |  |  |  |  | < 100 | > 10000 | COc1cc2c(cc1Nc1ncc(Cl)c(Nc3ccccc3S(=O)(=O)N(C)C)n1)CCC(NCC(F)F)CC2 (stereo not shown) [Example 1055, 2-{5-Chloro-2-[7-(2,2-difluoro-ethylamino)-3-methoxy-6,7,8,9-tetrahydro-5H-benzocyclohepten-2-ylamino]-pyrimidin-4-ylamino}-N,N-dimethyl-benzenesulfonamide] | 
18 |  |  |  |  | < 100 | < 100 | CNC(=O)c1cccc(F)c1Nc1nc(Nc2ccc3c(c2)CCN(C[C@@H](OC)C(F)(F)F)CC3)ncc1Cl [Example 1361, 2-{5-Chloro-2-[3-((R)-3,3,3-trifluoro-2-methoxy-propyl)-2,3,4,5-tetrahydro-1H-benzo[d]azepin-7-ylamino]-pyrimidin-4-ylamino}-3-fluoro-N-methyl-benzamide] | 
19 | 100 to 1000 | < 100 |  |  |  |  | CNC(=O)c1scc(C)c1Nc1nc(Nc2ccc3c(c2)C(C)(C)NC(=O)CC3)ncc1Cl [Example 1835, 3-(5-Chloro-2-(1,1-dimethyl-3-oxo-2,3,4,5-tetrahydro-1H-benzo[c]azepin-8-ylamino)pyrimidin-4-ylamino)-N,4-dimethylthiophene-2-carboxamide] | 
20 |  |  |  |  | < 100 | 100 to 1000 | COCCN1CCc2ccc(Nc3ncc(Cl)c(Nc4ccccc4Cl)n3)cc2CC1 [Example 1376, 5-Chloro-N(4)-(2-chloro-phenyl)-N(2)-[3-(2-methoxy-ethyl)-2,3,4,5-tetrahydro-1H-benzo[d]azepin-7-yl]-pyrimidine-2,4-diamine] | 
21 |  |  |  |  | < 100 | > 10000 | CNc1nc(N2CCOCC2)ccc1Nc1nc(Nc2cc3c(cc2OC)CCN(CC(=O)N(C)C)CC3)ncc1Cl [Example 1209, 2-{7-[5-Chloro-4-(2-methylamino-6-morpholin-4-yl-pyridin-3-ylamino)-pyrimidin-2-ylamino]-8-methoxy-1,2,4,5-tetrahydro-benzo[d]azepin-3-yl}-N,N-dimethyl-acetamide] | 
22 |  |  |  |  | < 100 | 100 to 1000 | COCCN1CCc2ccc(Nc3ncc(Cl)c(Nc4ccccc4S(C)(=O)=O)n3)cc2CC1 [Example 1249, 5-Chloro-N(4)-(2-methanesulfonyl-phenyl)-N(2)-[3-(2-methoxy-ethyl)-2,3,4,5-tetrahydro-1H-3-benzazepin-7-yl]-pyrimidine-2,4-diamine] | 
23 |  |  | < 100 | > 10000 |  |  | COc1cc2c(cc1Nc1ncc(Cl)c(NC3C4C=CC(C4)C3C(N)=O)n1)CCN(CC(=O)N(C)C)CC2 (stereo not drawn) [Example 260, (2-exo,3-exo)-3-[5-Chloro-2-(3-dimethylcarbamoylmethyl-8-methoxy-2,3,4,5-tetrahydro-1H-benzo[d]azepin-7-ylamino)-pyrimidin-4-ylamino]-bicyclo[2.2.1]hept-5-ene-2-carboxylic acid amide] | 
